Results taken from US20230381171A1, “AUTOIMMUNE THERAPY” (LDN Pharma Limited, priority 2018, published 2023).

How the values were obtained:
Assay type in all cases: in vivo, human
[1] = Laboratory hormone levels of supplemented hormones (Example 3)
Description: They were also prescribed Dehydroepiandrosterone (DHEA) 5 mg and Nature Throid thyroid hormone supplement 48.75 mg, progesterone 100 mg every night and testosterone cream 4 mg per day for low libido, and they were taking turmeric and krill oil. They started tapering off the plaquenil.
During treatment estradiol 1.0 mg was started and also at this point they were off the plaquenil for 3 weeks totally. […] In addition, their Free T3 (triiodothyronine) was 3.1.
During the treatment regimen, the administered DHEA was increased to 10 mg. The DHEA hormone was measured to be 203, Estradiol 117, progesterone 0.2, T3 3.3.
The patient's levels are at optimal levels where the T3 is in the upper range.

[2] = tested on: Hashimotos Thyroiditis, Fibromyalgia and Eosinophilic Esophaqitis; assay: Case report Example 1: patient treated with LDN and Vitamin D; settings: LDN 1.5 to 4.5 mg daily, Vitamin D 5,000 then 7,000 units per day
Description: Patient's symptoms included severe fatigue and muscle aches and pains over their body from the fibromyalgia. They were already taking Vitamin D at a daily dosage of 5,000 units and 130 mg of Nature Throid supplementation (a porcine product). For the first week of LDN treatment, the patient was administered daily dosages of 1.5 mg LDN and the 5,000 units of Vitamin D continued. During the second week, the daily dosage of LDN was increased to 3.0 mg. During the third week, the daily dosage of LDN was increased to 4.5 mg. […] Administration of Vitamin D was increased to 7,000 units per day.
Her thyroid medication requirements were reduced. Her symptoms of fibromyalgia were resolved after addition of the naltrexone to the regimen.

[3] = tested on: Systemic Lupus Erythematosus (SLE) and Sjorgren's Disease; assay: Case report Example 3: patient treated with naltrexone and Vitamin D3; settings: plaquenil 200 mg twice a day, before naltrexone
[4] = SpectraCell test of Vitamin D levels (Example 1); settings: after a month of treatment; Vitamin D 5,000 units daily; 55 is adequate
Source text: A sufficient amount can be determined by the skilled person by making a routine assessment of certain parameters of the patient to undergo the administration, such as, but not limited to, age, weight, gender, history of illness and/or other lifestyle factors including smoking, alcohol consumption and the level of exercise. Furthermore the skilled person can ascertain whether a dose has been sufficient to raise the vitamin D blood concentration to a sufficient amount by performing routine biochemical and analytical assays on a biological sample obtained from the subject. Preferably, the sample upon which said analysis is to be performed is blood. Examples of such well known assays include but are not limited to mass spectrometry, where the level of vitamin D or active metabolites thereof can be quantitatively measured. A sufficient amount is therefore an amount that achieves the desired blood vitamin D concentration. The desired concentration can be achieved after single administration or after repeated administrations of a dose of vitamin D or an active metabolite thereof. […]

Thyroiditis = assay: Case report Example 2: patient with thyroiditis treated with LDN and Vitamin D; settings: 5,000 units of Vitamin D per day, before naltrexone
Source text: This antibody activity then can interfere with the ability to incorporate iodine into the thyroid molecule, thus interfering with thyroid cell function.

[5] = Standard serum test of vitamin D level (Example 2)
Description: The patient was receiving Synthroid as treatment for hypothyroidism, and they also presented with a rare form of macular degeneration requiring intra-ocular injections and interstitial cystitis. […] At the time they were not aware they had autoimmune thyroiditis.
Their dosage for Nature Throid was 97.5 mg twice a day for their thyroid supplementation. Their vitamin D level was 45 ng/ml, T3 was 4.1 and T4 (thyroxine, which converts into T3 in peripheral tissues) was 0.84. Their thyroid has stabilized as shown by these values; the patient's levels are at optimal levels where the T3 is in the upper range.

[6] = testosterone cream 4 mg per day, later measurements

In the case of `C[C@]12CC[C@H](O)CC1=CC[C@@H]1[C@@H]2CC[C@]2(C)C(=O)CC[C@@H]12` [DHEA, Dehydroepiandrosterone], the DHEA hormone level ([1]; DHEA increased to 10 mg) was 203, the DHEA hormone level ([1]; last laboratory results) was 169 and the DHEA hormone level ([1]; later measurements) was 142.

For `O=C1CC[C@@]2(O)[C@H]3Cc4ccc(O)c5c4[C@@]2(CCN3CC2CC2)[C@H]1O5` [naltrexone, morphinan-6-one,17-(cyclopropylmethyl)-4,5-epoxy-3,14-dihydroxy-(5a)], the fibromyalgia symptoms [2] was “resolved”.

With `CCN(CCO)CCCC(C)Nc1ccnc2cc(Cl)ccc12` (centres unmarked) [plaquenil] the benefit on symptoms [3] was “minimal benefit”.

Compound `C[C@]12CC[C@H]3[C@@H](CCC4=CC(=O)CC[C@@]43C)[C@@H]1CC[C@@H]2O` [testosterone] has a Free testosterone [1, 6] of 1.3 and a total testosterone [1, 6] of 19.

In the case of Vitamin D, the “Vitamin D levels (SpectraCell test)” value [4] was 47, the “effect in regards to interstitial cystitis” value (Thyroiditis) was “did not seem to have any significant effect” and the “vitamin D 25 OH level” value ([5]; 5,000 units of vitamin D daily, standard serum test, deficient level) was 39. For the same compound, the “vitamin D level” value ([5]; during LDN and Vitamin D treatment) was 45 ng/mL.
